Data as given in publication PMC9204300, “Investigating the Mechanism of Inhibition of Cyclin-Dependent Kinase 6 Inhibitory Potential by Selonsertib: Newer Insights Into Drug Repurposing” (Frontiers in Oncology, 2022).

Target: Cyclin-dependent kinase 6 (CDK6) (Homo sapiens, UniProt Q00534)
Test: biochemical

Sequence of Cyclin-dependent kinase 6 (CDK6) (Q00534 whole entry): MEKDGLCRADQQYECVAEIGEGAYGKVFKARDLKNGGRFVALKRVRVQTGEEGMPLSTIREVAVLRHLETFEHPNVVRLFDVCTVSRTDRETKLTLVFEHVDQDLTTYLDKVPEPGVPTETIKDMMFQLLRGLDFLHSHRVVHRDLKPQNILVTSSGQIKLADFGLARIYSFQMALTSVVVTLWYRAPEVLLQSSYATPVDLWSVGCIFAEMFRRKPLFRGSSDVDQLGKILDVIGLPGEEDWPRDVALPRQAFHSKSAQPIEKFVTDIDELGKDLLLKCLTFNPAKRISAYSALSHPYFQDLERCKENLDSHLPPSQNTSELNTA

Cc1cc(F)c(C(=O)Nc2cccc(-c3nncn3C(C)C)n2)cc1-n1cnc(C2CC2)c1 [selonsertib]
Kd: 5.56 µM
